Laboratory results reported in PubChem BioAssay (NCI).
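How tested: cells in 96-well plates exposed to compound for 48 hours at five concentrations. Definition used: TGI = concentration required for complete inhibition of growth.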 Where a SMILES comes first, the peptide text is derived from it. The star is where a group is joined. X36 = O=C(c1ccc(-c2ccc(Cl)cc2Cl)o1)*

Columns and labels:
Assay in all cases: NCI anticancer screen, dose series, 48 h
DU-145 prostate = tested on: DU-145 prostate
OVCAR-4 ovarian = tested on: OVCAR-4 ovarian
SK-MEL-2 melanoma = tested on: SK-MEL-2 melanoma
A549 NSCLC = tested on: A549 NSCLC
M14 melanoma = tested on: M14 melanoma
PC-3 prostate = tested on: PC-3 prostate
UACC-62 melanoma = tested on: UACC-62 melanoma
EKVX NSCLC = tested on: EKVX NSCLC
SK-OV-3 ovarian = tested on: SK-OV-3 ovarian
NCI-H226 lung = tested on: NCI-H226 lung
UACC-257 melanoma = tested on: UACC-257 melanoma
HS 578T breast = tested on: HS 578T breast
ACHN renal = tested on: ACHN renal
OVCAR-5 ovarian = tested on: OVCAR-5 ovarian
SK-MEL-5 melanoma = tested on: SK-MEL-5 melanoma
HL-60(TB) leukemia = tested on: HL-60(TB) leukemia
SF-268 CNS = tested on: SF-268 CNS
NCI/ADR-RES ovarian = tested on: NCI/ADR-RES ovarian
MDA-MB-231 breast = tested on: MDA-MB-231 breast
KM12 colon = tested on: KM12 colon

Row | SMILES | TGI (DU-145 prostate) [µM] | TGI (OVCAR-4 ovarian) [µM] | TGI (SK-MEL-2 melanoma) [µM] | TGI (A549 NSCLC) [µM] | TGI (M14 melanoma) [µM] | TGI (PC-3 prostate) [µM] | TGI (UACC-62 melanoma) [µM] | TGI (EKVX NSCLC) [µM] | TGI (SK-OV-3 ovarian) [µM] | TGI (NCI-H226 lung) [µM] | TGI (UACC-257 melanoma) [µM] | TGI (HS 578T breast) [µM] | TGI (ACHN renal) [µM] | TGI (OVCAR-5 ovarian) [µM] | TGI (SK-MEL-5 melanoma) [µM] | TGI (HL-60(TB) leukemia) [µM] | TGI (SF-268 CNS) [µM] | TGI (NCI/ADR-RES ovarian) [µM] | TGI (MDA-MB-231 breast) [µM] | TGI (KM12 colon) [µM]
1 | C=C1C(=O)CC2C(=O)C(C)(O)CC/C=C(\C)C(=O)CC12 (configuration not stated) | 42.2 | > 58.2 | > 82.9 | > 100 | 31 | 83 | 91.8 | 53.9 | > 100 | > 77.3 | 55.5 | 43.5 | 27.3 | 47.2 | 35.6 | 8.87 | > 76.1 | > 100 | 74.7 | > 100
2 | Cc1ccc([C@H]2CC(=O)C[C@H](c3ccc(C)cc3)C23C(=O)c2ccccc2C3=O)cc1 | > 100 | 47.2 | > 100 | > 100 | > 100 | 84.5 | > 100 | > 100 | > 100 | > 100 | 49.7 | 58.7 | > 100 | > 100 | > 100 | 33.2 | > 100 | 30.2 | > 100 | > 100
3 | O=c1c2c([N+](=O)[O-])cccc2nc2[nH]c3ccccc3n12 | > 75 | 23.9 | 42.5 | > 75 | > 75 | > 75 | > 75 | > 75 | 24.6 | > 75 | > 75 | > 75 | 29 | > 75 | > 75 | > 75 | 62 | > 75 | 31.7 | > 75
4 | C=CCCC(=O)CC(O)(C(F)(F)F)C(F)(F)F | > 100 | > 100 | > 100 | > 100 | > 100 | > 100 | > 100 | > 100 | > 100 | > 100 | > 100 | > 100 | > 100 | > 100 | > 100 | > 100 |  | > 100 | > 100 | > 100
5 | O=c1c2ncn(COCCCl)c2n(-c2ccccc2)c(=S)n1-c1ccccc1 | > 100 | > 100 | > 100 | > 100 | > 100 | > 100 | > 100 | > 100 | > 100 | > 100 | > 100 | > 100 | > 100 | > 100 | > 100 | > 100 | > 100 | > 100 | > 100 | > 100
6 | CCC(C#N)NC(=O)NC(C#N)CC (configuration not stated) | > 100 | > 100 | > 100 | > 100 | > 100 | > 100 | > 100 | > 100 | > 100 | > 100 | > 100 | > 100 | > 100 | > 100 | > 100 | > 100 | > 100 | > 100 | > 100 | > 100
7 | COc1cc(C2SCC(=O)N2c2ccc(-c3ccc(-n4c(-c5ccccc5)nc5ccccc5c4=O)cc3)cc2)cc(OC)c1OC (configuration not stated) | > 100 | > 100 | 56.5 | > 100 | > 100 | 41.5 | > 100 | > 100 | > 100 | > 100 |  | > 100 | > 100 | > 100 | > 100 | > 100 | > 100 | > 100 | > 100 | 62.9
8 | O=c1oc2ccccc2c(Nc2ccc3c(c2)Oc2ccccc2O3)c1[N+](=O)[O-] | 90.1 | 67 | 34.5 | > 100 | > 100 | 32.5 | 37.1 | 67.6 | 40.9 | 48.1 | 91.2 | 82.8 | 32.7 | > 100 | 45.3 | > 100 | 48.4 | 69.4 | 38.3 | > 100
9 | CC(=O)O[C@H]1C#C/C=C\C#CC[C@@H]2C(=O)N[C@@H]12 | 62 | > 100 | > 100 | > 100 | > 100 | > 100 | > 100 | > 100 | > 100 | 90.8 | > 100 | > 86.2 | 52.2 | > 100 | > 100 | 33.5 | > 70.2 | > 75.9 | > 100 | > 100
10 | NP(=O)(OCC1=CC(=O)c2ccccc2C1=O)N(CCBr)CCBr (configuration not stated) | 18.1 | 31.6 | 25.3 | 26.5 |  | 46 | 5.3 | 34.6 | 30.9 | 25.8 | 4.21 | 90.7 | 15.7 | 45.1 | 3.21 | > 100 | 26.7 | > 73.4 | 27.2 | 25
11 | CCC(C)C(NC(=O)CNC(=O)C(Cc1ccccc1)NC(=O)C1CCCN1C(=O)c1ccc(-c2ccc(Cl)cc2Cl)o1)C(=O)OC (configuration not stated) (X36-PFGI-OMe; configuration not given here) | > 100 | > 100 | > 100 | > 100 | > 100 | 49.1 | > 100 | 89.9 | > 100 | > 100 | 67.2 | > 100 | > 100 | > 100 | 45.6 | > 100 | > 100 | > 100 | > 100 | > 100
12 | Cc1ccc(/C(O)=C/C(=O)C(=O)/C=C(\O)c2ccc(C)cc2C)c(C)c1 | 5.43 | 9.04 | 3.65 | 4.16 | 3.27 | 5.64 | 3.38 | 5.56 | 3.47 | 4.51 | 3.21 | 5.15 | 3.65 | 3.88 | 3.26 | 0.58 | 4.02 | 4.12 | 4.83 | 3.44
